Measurements taken from patent US6521776B2, “Immunological adjuvant compounds compositions and methods of use thereof” (Eisai Company, Limited, priority 2000, dated 2003).
Read-outs that look alike come from different tables or passages of the source.

Tests used:
TNF-α = experiment: Induction of cytokines in vitro: TNF-α release in human whole blood (ELISA); format: cell-based; settings: read-out: TNFa Stimulation Value
Method: The ability to trigger a stimulatory response in macrophages is likely a necessary characteristic of molecules with imunoadjuvant properties. Therefore, the ability of compounds to stimulate release of TNF-α and other cytokines from immune cells is tested as an indication of their ability to stimulate an immune response, which may result in adjuvant activity.
The most readily available human system to test compound activity on monocytes/macrophages is in whole blood. Various concentrations of compounds of the invention were added as 10×stocks in 50 μl of 5% dextrose followed by 50 μl of 5% dextrose into 400 μl of heparinized whole blood obtained from normal volunteers (18-51 years old; 110-230 lb) into the wells of plastic assay plates, for a total volume of 500 μl/well (final concentration of whole blood was 80%). The 10×stocks were made by dissolving compounds to 1 mM in water and sonicating them for 2 minutes in an ice bath. The compounds were then brought to 10× in 5% dextrose. After a 3-hour incubation with gentle shaking at 37° C. in a 5% CO2 atmosphere, the assay plates were centrifuged at 1000×g for 10 minutes at 4° C. and plasma was drawn off and frozen at −80° C. Plasma samples were analyzed for TNF-α by ELISA (R & D Systems, Minneapolis, Minn.). Each assay point was tested in triplicate.
The stimulatory value is the compound concentration needed to stimulate TNF-α release equal to half the release obtained from the same whole blood sample with 10 ng/ml of LPS.

[1] = system: tetanus toxoid-specific IgG; parameters: species or system Balb/c mice; settings: mouse, in vivo, sc

SMILES	EC50 (TNF-α; compound concentration needed to stimulate TNF-α release equal to half the release obtained with 10 ng/ml LPS, 80% heparinized human whole blood, 3-hour incubation, 37° C.) [nM]	EC50 (TNF-α; Homo sapiens, 3 h) [nM]	Mean concentration of tetanus toxoid-specific IgG (6 mice/group) [1] [µg/mL]
CCCCCCCCCCCCC/C=C/[C@@H](OC(=O)CCCCCCCCCCC)[C@H](COP(=O)(O)OCCNC(=O)NCCOP(=O)(O)OC[C@H](NC(=O)CCCCCCCCCCCCC)[C@@H](/C=C/CCCCCCCCCCCCC)OC(=O)CCCCCCCCCCC)NC(=O)CCCCCCCCCCCCC (single isomer, unassigned) [ER-805270]	> 10000		
CCCCCCCCCCCCCC(=O)N[C@@H](COP(=O)([O-])OCCNC(=O)NCCOP(=O)([O-])OC[C@H](NC(=O)CCCCCCCCCCCCC)[C@H](CCCCCCCCCCC)OC(=O)CCCCCCCCCCC)[C@H](CCCCCCCCCCC)OC(=O)CCCCCCCCCCC.[Na+].[Na+] [ER-804874]		9	5640
CCCCCCCCCCCCC/C=C/[C@@H](OC(=O)CCCCCCCCCCC)[C@H](COP(=O)([O-])OCCNC(=O)NCCOP(=O)([O-])OC[C@H](NC(=O)CCCCCCCCCCCCC)[C@@H](/C=C/CCCCCCCCCCCCC)OC(=O)CCCCCCCCCCC)NC(=O)CCCCCCCCCCCCC.[Na+].[Na+] [ER-805270]			1995
CCCCCCCCCCCCC(=O)O[C@H](CCOP(=O)([O-])OCCNC(=O)NCCOP(=O)([O-])OCC[C@@H](OC(=O)CCCCCCCCCCCC)C(CCCCCCCCCC)OC(=O)CCCCCCCCCC)C(CCCCCCCCCC)OC(=O)CCCCCCCCCC.[Na+].[Na+] (stereo partly shown) [ER-805271]		1600	2010
CCCCCCCCCCCCC(=O)N[C@@H](CCOP(=O)([O-])OCCNC(=O)NCCOP(=O)([O-])OCC[C@H](NC(=O)CCCCCCCCCCCC)C(CCCCCCCCCC)OC(=O)CCCCCCCCCC)C(CCCCCCCCCC)OC(=O)CCCCCCCCCC.[Na+].[Na+] (stereo partly shown) [ER-805274]		14	3218
CCCCCCCCCCCCCC(=O)NC(CCCCCCCCC)CC[C@@H](COP(=O)(O)OCCNC(=O)NCCOP(=O)(O)OC[C@H](CCC(CCCCCCCCC)NC(=O)CCCCCCCCCCCCC)OC(=O)CCCCCCCCCCCCC)OC(=O)CCCCCCCCCCCCC (stereo partly shown) [ER-805328]		205	
CCCCCCCCCCCCCC(=O)N[C@H](CCCC(CCCCCCCC)OC(=O)CCCCCCCCCCCC)COP(=O)(O)OCCNC(=O)NCCOP(=O)(O)OC[C@@H](CCCC(CCCCCCCC)OC(=O)CCCCCCCCCCCC)NC(=O)CCCCCCCCCCCCC (stereo partly shown) [ER-805517]		70	
